These results are taken from patent US20190135857A1, “TR[…] HUMAN IMMUNODEFICIENCY VIRUS REPLICATION” (priority 2016, published 2019).

This test concerns recombinant NL4-3 virus (nef section replaced with Renilla luciferase gene, Gag P373S). Kind of test: HIV Cell Culture Assay. The conditions noted are these: NL43. It is filed as cell-based. As to the method: MT-2 cells and 293T cells were obtained from the NIH AIDS Research and Reference Reagent Program. MT-2 cells were propagated in RPMI 1640 media supplemented with 10% heat inactivated fetal bovine serum, […]. The 293T cells were propagated in DMEM media supplemented with 10% heat inactivated fetal bovine serum (FBS), 100 units/ml penicillin G and 100 μg/ml streptomycin. The proviral DNA clone of NL4-3 was obtained from the NIH AIDS Research and Reference Reagent Program. A recombinant NL4-3 virus, in which a section of the nef gene from NL4-3 was replaced with the Renilla luciferase gene, was used as a reference virus. In addition, residue Gag P373 was converted to P373S. Briefly, the recombinant virus was prepared by transfection of the altered proviral clone of NL4-3. Transfections were performed in 293T cells using LipofectAMINE PLUS from Invitrogen (Carlsbad, Calif.), according to manufacturer's instruction. The virus was titered in MT-2 cells using luciferase enzyme activity as a marker. Luciferase was quantitated using the Dual Luciferase kit from Promega (Madison, Wis.), with modifications to the manufacturer's protocol. The diluted Passive Lysis solution was pre-mixed with the re-suspended Luciferase Assay Reagent and the re-suspended Stop & Glo Substrate (2:1:1 ratio). Fifty (50) μL of the mixture was added to each aspirated well on assay plates and luciferase activity was measured immediately on a Wallac TriLux (Perkin-Elmer). Antiviral activities of inhibitors toward the recombinant virus were quantified by measuring luciferase activity in cells infected for 4-5 days with NLRluc recombinants in the presence serial dilutions of the inhibitor. Note that some of the data is provided in abbreviated exponential form such that, for example, 2.53E−3, is equivalent to 2.53×10^−3.
One may read the EC50 as the concentration giving half of the maximal effect. In the case of `CC(C)[C@@H]1CC[C@]2(NCCN3C[C@@H]4C[C@H]3CS4(=O)=O)CC[C@]3(C)[C@H](CC[C@@H]4[C@@]5(C)CC[C@@H](c6ccc(C(=O)O)cc6)C(C)(C)[C@@H]5CC[C@]43C)[C@@H]12` (single isomer, unassigned) [Example B12], the EC50 amounted to 0.605 nM. Regarding `CC(C)[C@@H]1CC[C@]2(NC(=O)OCCCN(C)C)CC[C@]3(C)[C@H](CC[C@@H]4[C@@]5(C)CC[C@@H](c6ccc(C(=O)O)cc6)C(C)(C)[C@@H]5CC[C@]43C)[C@@H]12` (single isomer, unassigned) [Example B8], the EC50 was found to be 4.49 nM. Regarding `CC(C)[C@@H]1CC[C@]2(NCCN3CCC(S(C)(=O)=O)CC3)CC[C@]3(C)[C@H](CC[C@@H]4[C@@]5(C)CC[C@@H](c6ccc(C(=O)O)cc6)C(C)(C)[C@@H]5CC[C@]43C)[C@@H]12` [Example B13, 4-((1S,3aS,5aR,5bR,7aS,9R,11aS,11bR,13aR,13bR)-1-isopropyl-5a,5b,8,8,11a-pentamethyl-3a-((2-(4-(methylsulfonyl)piperidin-1-yl)ethyl)amino)icosahydro-1H-cyclopenta[a]chrysen-9-yl)benzoic acid], the EC50 worked out at 1.58 nM. The result for `CC(C)[C@@H]1CC[C@]2(N)CC[C@]3(C)[C@H](CC[C@@H]4[C@@]5(C)CC[C@@H](c6ccc(C(=O)O)cc6)C(C)(C)[C@@H]5CC[C@]43C)[C@@H]12` [Example B4, 4-((1S,3aS,5aR,5bR,7aS,9R,11aS,11bR,13aR,13bR)-3a-amino-1-isopropyl-5a,5b,8,8,11a-pentamethylicosahydro-1H-cyclopenta[a]chrysen-9-yl)benzoic acid] reads 4.53 nM. Under `CC(C)[C@@H]1CC[C@]2(C(=O)O)CC[C@]3(C)[C@H](CC[C@@H]4[C@@]5(C)CC[C@@H](c6ccc(C(=O)O)cc6)C(C)(C)[C@@H]5CC[C@]43C)[C@@H]12` [Example B1, (1S,3aS,5aR,5bR,7aS,9R,11aS,11bR,13aR,13bR)-9-(4-carboxyphenyl)-1-isopropyl-5a,5b,8,8,8,11a-pentamethylicosahydro-1H-cyclopenta[a]chrysene-3a-carboxylic acid] stands 10 nM.

Regarding `CC(C)[C@@H]1CC[C@]2(NC(=O)NCCCN(C)C)CC[C@]3(C)[C@H](CC[C@@H]4[C@@]5(C)CC[C@@H](c6ccc(C(=O)O)cc6)C(C)(C)[C@@H]5CC[C@]43C)[C@@H]12` (single isomer, unassigned) [Example B6], the EC50 is 5.13 nM. Under `CC(C)[C@@H]1CC[C@]2(NC(=O)OCCN(C)C)CC[C@]3(C)[C@H](CC[C@@H]4[C@@]5(C)CC[C@@H](c6ccc(C(=O)O)cc6)C(C)(C)[C@@H]5CC[C@]43C)[C@@H]12` (single isomer, unassigned) [Example B7] stands 6.45 nM. Under `CC(C)[C@@H]1CC[C@]2(NC(=O)NCCN(C)C)CC[C@]3(C)[C@H](CC[C@@H]4[C@@]5(C)CC[C@@H](c6ccc(C(=O)O)cc6)C(C)(C)[C@@H]5CC[C@]43C)[C@@H]12` (single isomer, unassigned) [Example B5] stands 5.16 nM; under `CC(C)[C@@H]1CC[C@]2(NC(=O)CCN(C)C)CC[C@]3(C)[C@H](CC[C@@H]4[C@@]5(C)CC[C@@H](c6ccc(C(=O)O)cc6)C(C)(C)[C@@H]5CC[C@]43C)[C@@H]12` (single isomer, unassigned) [Example B10], 3.81 nM. Under `CC(C)[C@@H]1CC[C@]2(NC(=O)CCCN(C)C)CC[C@]3(C)[C@H](CC[C@@H]4[C@@]5(C)CC[C@@H](c6ccc(C(=O)O)cc6)C(C)(C)[C@@H]5CC[C@]43C)[C@@H]12` (single isomer, unassigned) [Example B11] stands 5.94 nM.

Consider `CC(C)[C@@H]1CC[C@]2(NC(=O)CN(C)C)CC[C@]3(C)[C@H](CC[C@@H]4[C@@]5(C)CC[C@@H](c6ccc(C(=O)O)cc6)C(C)(C)[C@@H]5CC[C@]43C)[C@@H]12` (single isomer, unassigned) [Example B9], for which the EC50 worked out at 10 nM. As for `CC(C)[C@@H]1CC[C@]2(C(=O)NCCCN(C)C)CC[C@]3(C)[C@H](CC[C@@H]4[C@@]5(C)CC[C@@H](c6ccc(C(=O)O)cc6)C(C)(C)[C@@H]5CC[C@]43C)[C@@H]12` [Example B3, 4-((1S,3aS,5aR,5bR,7aS,9R,11aS,11bR,13aR,13bR)-3a-((3-(dimethylamino)propyl)carbamoyl)-1-isopropyl-5a,5b,8,8,11a-pentamethylicosahydro-1H-cyclopenta[a]chrysen-9-yl)benzoic acid], the EC50 worked out at 2.33 nM.

In the case of `CC(C)[C@@H]1CC[C@]2(C(=O)NCCN(C)C)CC[C@]3(C)[C@H](CC[C@@H]4[C@@]5(C)CC[C@@H](c6ccc(C(=O)O)cc6)C(C)(C)[C@@H]5CC[C@]43C)[C@@H]12` [Example B2, 4-((1S,3aS,5aR,5bR,7aS,9R,11aS,11bR,13aR,13bR)-3a-((2-(dimethylamino)ethyl)carbamoyl)-1-isopropyl-5a,5b,8,8,11a-pentamethylicosahydro-1H-cyclopenta[a]chrysen-9-yl)benzoic acid], the EC50 is 2.53 nM.
